Assays:
[1] = system: FGF1A mRNA in white adipose tissue (WAT); experiment: FGF1A mRNA in white adipose tissue after PPARγ ligand treatment; assay type: in vivo; conditions: fed mice, oral 5 mg/kg for 3 days
Procedure: To test this hypothesis the expression of FGF1A in response to feeding, fasting and PPARγ ligand treatment was determined (FIG. 47, left panel).

[2] = system: TRAP expression; conditions: human peripheral mononuclear cells; Reddy 1996; cited from earlier work
[3] = system: pre-adipocytes; conditions: treatment of pre-adipocytes; Hutley 2004, Newell 2006; cited from earlier work

## CN(CCOc1ccc(CC2SC(=O)NC2=O)cc1)c1ccccn1 (stereo not drawn) [BRL, BRL49653 (Rosiglitazone)]
[1]
  mRNA levels of FGF1A: significantly increased

## ferric protoporphyrin IX [hemin]
[2]
  TRAP expression at the transcriptional level: inhibited

## recombinant FGF1: recombinant FGF1, fibroblast growth factor polypeptide
[3]
  effect on pre-adipocytes: increased proliferation and adipogenesis

Source: US20110263454A1, “Methods of Identifying Functional Characteristics of Promoters, Transcription Modifying Proteins and Transcription Modulating Agents” (Salk Institute for Biological Studies, priority 2008, published 2011)
